Measurements: patent US9073940B2, “Tricyclic pyrazol amine derivatives” (MERCK SERONO SA, priority 2009, dated 2015)
Structures can show the parent of a compound that is named as a salt.

The compounds below were run on 4 PI3K isoforms (Human recombinant GST-PI3K) (assay: PI3K scintillation proximity assay, best IC50 obtained with the four isoforms (alpha, beta, delta, gamma)). Conditions: best IC50 obtained with the four isoforms of PI3K; read-out: Best potency measured on the 4 PI3K isoforms.
Assay type: biochemical

SMILES | IC50 [nM]
O=C(c1nn(-c2ccc(CN3CCC(F)(F)CC3)cc2)c2c1CS(=O)(=O)c1ccccc1-2)N1CCOCC1 [Example 268, 1-{4-[(4,4-Difluoropiperidin-1-yl)methyl]phenyl}-3-(morpholin-4-ylcarbonyl)-1,4-dihydrothiochromeno[4,3-c]pyrazole 5,5-dioxide] | 230
O=C(c1nn(-c2ccc(Br)cc2)c2c1CS(=O)(=O)c1ccccc1-2)N1CCOCC1 [Example 27, 1-(4-bromophenyl)-3-(morpholin-4-ylcarbonyl)-1,4-dihydrothiochromeno[4,3-c]pyrazole 5,5-dioxide] | 1120
O=C(c1nn(-c2cccc(OCCn3cccn3)c2)c2c1CS(=O)(=O)c1ccccc1-2)N1CCOCC1 [Example 340, 3-(Morpholin-4-ylcarbonyl)-1-{3-[2-(1H-pyrazol-1-yl)ethoxy]phenyl}-1,4-dihydrothiochromeno[4,3-c]pyrazole 5,5-dioxide] | 445
CN(C)C(=O)c1ccc2c(c1)-c1c(c(C(=O)N3CCOCC3)nn1-c1ccccc1)CS2(=O)=O [Example 115, N,N-Dimethyl-3-(morpholin-4-ylcarbonyl)-1-phenyl-1,4-dihydrothiochromeno[4,3-c]pyrazole-8-carboxamide 5,5-dioxide] | 3730
O=C(c1nn(-c2ccc3c(c2)OCCO3)c2c1CS(=O)(=O)c1ccccc1-2)N1CCOCC1 [Example 23, 1-(2,3-dihydro-1,4-benzodioxin-6-yl)-3-(morpholin-4-ylcarbonyl)-1,4-dihydrothiochromeno[4,3-c]pyrazole 5,5-dioxide] | 670
O=C(c1nn(-c2ccc(CNC3CCCOC3)cc2)c2c1CS(=O)(=O)c1ccccc1-2)N1CCOCC1 (stereo not drawn) [Example 455, N-{4-[3-(Morpholin-4-ylcarbonyl)-5,5-dioxidothiochromeno[4,3-c]pyrazol-1(4H)-yl]benzyl}tetrahydro-2H-pyran-3-amine] | 224
O=C(c1nn(-c2cccc(-c3ncon3)c2)c2c1CS(=O)(=O)c1ccccc1-2)N1CCOCC1 [Example 324] | 6690
Cc1noc(C)c1-c1cccc(-n2nc(C(=O)N3CCOCC3)c3c2-c2ccccc2S(=O)(=O)C3)c1 [Example 184, 1-[3-(3,5-Dimethylisoxazol-4-yl)phenyl]-3-(morpholin-4-ylcarbonyl)-1,4-dihydrothiochromeno[4,3-c]pyrazole 5,5-dioxide] | 300
O=C(c1nn(-c2ccc(C3(CN4CCOCC4)CC3)cc2)c2c1CS(=O)(=O)c1ccccc1-2)N1CCOCC1 [Example 462, 3-(Morpholin-4-ylcarbonyl)-1-{4-[1-(morpholin-4-ylmethyl)cyclopropyl]phenyl}-1,4-dihydrothiochromeno[4,3-c]pyrazole 5,5-dioxide] | 995
O=C(c1nn([C@@H]2CCN(C3CCOCC3)C2)c2c1CS(=O)(=O)c1c(F)cccc1-2)N1CCOCC1 (single isomer, unassigned) [Example 353, 6-fluoro-3-(morpholin-4-ylcarbonyl)-1-[1-(tetrahydro-2H-pyran-4-yl)pyrrolidin-3-yl]-1,4-dihydrothiochromeno[4,3-c]pyrazole 5,5-dioxide hydrochloride salt] | 2040
Cc1cccc(-n2nc(C(=O)N3CCOCC3)c3c2-c2ccccc2S(=O)(=O)C3)c1 [Example 6, 1-(3-methylphenyl)-3-(morpholin-4-ylcarbonyl)-1,4-dihydrothiochromeno[4,3-c]pyrazole 5,5-dioxide] | 926
O=C(c1nn(-c2cccc(CN3CCCC3)c2)c2c1CS(=O)(=O)c1ccccc1-2)N1CCOCC1 [Example 245, 3-(Morpholin-4-ylcarbonyl)-1-[3-(pyrrolidin-1-ylmethyl)phenyl]-1,4-dihydrothiochromeno[4,3-c]pyrazole 5,5-dioxide] | 516
COCCNc1ccc2c(c1)-c1c(c(C(=O)N3CCOCC3)nn1C1CCCCC1)CS2(=O)=O [Example 89] | 1390
O=C(c1nn(-c2ccc(CNC3CCOC3)cc2)c2c1CS(=O)(=O)c1ccccc1-2)N1CCOCC1 (stereo not drawn) [Example 456, N-{4-[3-(Morpholin-4-ylcarbonyl)-5,5-dioxidothiochromeno[4,3-c]pyrazol-1(4H)-yl]benzyl}tetrahydrofuran-3-amine] | 156
O=C(c1nn(C2CCN(C3CCOCC3)C2)c2c1CS(=O)(=O)c1c(F)cccc1-2)N1CCOCC1 (stereo not drawn) [Example 298, 6-Fluoro-3-(morpholin-4-ylcarbonyl)-1-[1-(tetrahydro-2H-pyran-4-yl)pyrrolidin-3-yl]-1,4-dihydrothiochromeno[4,3-c]pyrazole 5,5-dioxide] | 29
CC(=O)Nc1nc2c(s1)S(=O)(=O)Cc1c(C(=O)N3CCOCC3)nn(C3CCOCC3)c1-2 [Example 289, N-[3-(Morpholin-4-ylcarbonyl)-5,5-dioxido-1-(tetrahydro-2H-pyran-4-yl)-1,4-dihydropyrazolo[3′,4′:4,5]thiopyrano[3,2-d][1,3]thiazol-7-yl]acetamide] | 284

SMILES | IC50 [nM]
O=C(c1cccc(-n2nc(C(=O)N3CCOCC3)c3c2-c2ccccc2S(=O)(=O)C3)c1)N1CCC(O)CC1 [Example 143, 1-{3-[3-(Morpholin-4-ylcarbonyl)-5,5-dioxidothiochromeno[4,3-c]pyrazol-1 (4H)-yl]benzoyl}piperidin-4-ol] | 371
O=C(c1nn(-c2ccc(CN3CCCCC3)cc2)c2c1CS(=O)(=O)c1ccccc1-2)N1CCOCC1 [Example 169, 3-(Morpholin-4-ylcarbonyl)-1-[4-(piperidin-1-ylmethyl)phenyl]-1,4-dihydrothiochromeno[4,3-c]pyrazole 5,5-dioxide] | 110
COc1ccccc1-n1nc(C(=O)N2CCOCC2)c2c1-c1ccccc1S(=O)(=O)C2 [Example 313, 1-(2-Methoxyphenyl)-3-(morpholin-4-ylcarbonyl)-1,4-dihydrothiochromeno[4,3-c]pyrazole 5,5-dioxide] | 14800
COCCCC1c2c(C(=O)N3CCOCC3)nn(-c3ccccc3)c2-c2ccccc2S1(=O)=O (stereo not drawn) [Example 112, 4-(3-Methoxypropyl)-3-(morpholin-4-ylcarbonyl)-1-phenyl-1,4-dihydrothiochromeno[4,3-c]pyrazole 5,5-dioxide] | 5070
Cc1ccc(F)cc1-n1nc(C(=O)N2CCOCC2)c2c1-c1ccccc1S(=O)(=O)C2 [Example 8, 1-(5-fluoro-2-methylphenyl)-3-(morpholin-4-ylcarbonyl)-1,4-dihydrothiochromeno[4,3-c]pyrazole 5,5-dioxide] | 4200
CC(C)(CN1CCOCC1)c1ccc(-n2nc(C(=O)N3CCOCC3)c3c2-c2ccccc2S(=O)(=O)C3)cc1 [Example 461, 1-[4-(1,1-Dimethyl-2-morpholin-4-ylethyl)phenyl]-3-(morpholin-4-ylcarbonyl)-1,4-dihydrothiochromeno[4,3-c]pyrazole 5,5-dioxide] | 341
O=C(c1ccc2c(c1)-c1c(c(C(=O)N3CCOCC3)nn1-c1ccccc1)CS2(=O)=O)N1CCCCC1 [Example 117, 3-(Morpholin-4-ylcarbonyl)-1-phenyl-8-(piperidin-1-ylcarbonyl)-1,4-dihydrothiochromeno[4,3-c]pyrazole 5,5-dioxide] | 3410
O=C(c1nn(-c2ccccc2)c2c1CS(=O)(=O)c1ccc(Br)cc1-2)N1CCOCC1 [Example 64] | 1300
Cc1nc(-c2cccc(-n3nc(C(=O)N4CCOCC4)c4c3-c3ccccc3S(=O)(=O)C4)c2)n[nH]1 [Example 200, 1-[3-(5-Methyl-1H-1,2,4-triazol-3-yl)phenyl]-3-(morpholin-4-ylcarbonyl)-1,4-dihydrothiochromeno[4,3-c]pyrazole 5,5-dioxide] | 4860
O=C(c1nn(C2CCN(CCO)CC2)c2c1CS(=O)(=O)c1ccccc1-2)N1CCOCC1 [Example 121, 2-{4-[3-(Morpholin-4-ylcarbonyl)-5,5-dioxidothiochromeno[4,3-c]pyrazol-1 (4H)-yl]piperidin-1-yl}ethanol] | 1760
CC1(C)CN(Cc2ccc(-n3nc(C(=O)N4CCOCC4)c4c3-c3ccccc3S(=O)(=O)C4)cc2)CCO1 [Example 437, 1-{4-[(2,2-Dimethylmorpholin-4-yl)methyl]phenyl}-3-(morpholin-4-ylcarbonyl)-1,4-dihydrothiochromeno[4,3-c]pyrazole 5,5-dioxide] | 120
COC1CCN(C(=O)c2cccc(-n3nc(C(=O)N4CCOCC4)c4c3-c3ccccc3S(=O)(=O)C4)c2)CC1 [Example 142, 1-{3-[(4-Methoxypiperidin-1-yl)carbonyl]phenyl}-3-(morpholin-4-ylcarbonyl)-1,4-dihydrothiochromeno[4,3-c]pyrazole 5,5-dioxide] | 302
CN(C)CCN1CCCC(n2nc(C(=O)N3CCOCC3)c3c2-c2ccccc2S(=O)(=O)C3)C1 (stereo not drawn) [Example 253, N,N-Dimethyl-2-{3-[3-(morpholin-4-ylcarbonyl)-5,5-dioxidothiochromeno[4,3-c]pyrazol-1 (4H)-yl]piperidin-1-yl}ethanamine] | 72
Cc1ccccc1-n1nc(C(=O)N2CCOCC2)c2c1-c1ccccc1S(=O)(=O)C2 [Example 19, 1-(2-methylphenyl)-3-(morpholin-4-ylcarbonyl)-1,4-dihydrothiochromeno[4,3-c]pyrazole 5,5-dioxide] | 2280
O=C(c1nn(-c2cccc(CN3CCSCC3)c2)c2c1CS(=O)(=O)c1ccccc1-2)N1CCOCC1 [Example 236, 3-(Morpholin-4-ylcarbonyl)-1-[3-(thiomorpholin-4-ylmethyl)phenyl]-1,4-dihydrothiochromeno[4,3-c]pyrazole 5,5-dioxide] | 232
O=C(c1nn([C@@H]2CCCN(CCN3CCOCC3)C2)c2c1CS(=O)(=O)c1ccccc1-2)N1CCOCC1 (single isomer, unassigned) [Example 348, 3-(morpholin-4-ylcarbonyl)-1-[1-(2-morpholin-4-ylethyl)piperidin-3-yl]-1,4-dihydrothiochromeno[4,3-c]pyrazole 5,5-dioxide] | 1280

Same assay, conditions: inhibition at 20 μM

SMILES | Best potency measured on the 4 PI3K isoforms, % inh @20 μM [% inh @20 μM]
O=C(c1nn(-c2ccccc2)c2c1C[S+]([O-])c1ccccc1-2)N1CCOCC1 (stereo not drawn) [Example 330, 3-(Morpholin-4-ylcarbonyl)-1-phenyl-1,4-dihydrothiochromeno[4,3-c]pyrazole 5-oxide] | 18
